≈ marks a conversion by molar mass, not a printed value. Where “and” joins values, the source holds several entries; their conditions need not be identical. Equal entries are not always repeated. Where two headings read alike, the source gives them in different places.
How the values were obtained:
Type in all cases: cell-based
Alternaria tenuissima [1] = test: Liquid culture assay on 24 well plates, solo ai (EC95/MIC); settings: for EC95: 24° C., 3-6 days; for MIC: Alternaria tenuissima, read-out: MIC Minimal inhibition concentration
Description: (§1) The following compounds and formulations were used: […]
(§2) Alternaria tenuissima, Penicillium citrinum, Stachybotrys chartarum, Aspergillus niger and Aureobasidium pullulans were separately cultivated on PDA media to […] sporulation. Spore suspensions were produced for each fungi.
(§3) For solo (i.e. single) ai testing the formulated fungicide (100 ul) was filled into the 24 well plates (8 different rates: 100-0.05 mg aiA final volume as described above) and 100 ul distilled water was added. Afterwards 800 ul of 0.3% PDA media was added to the plate. The spore suspension of the specific fungi was added to this media in advance containing approx. 100.000 spores/ml. The 24 well plates were sealed and incubated at 24° C.
(§4) Dependent on the growth properties of each organisms, the evaluation was done after 3 to 6 days, when the surface of the check well was covered with mycelium. The evaluation was performed by assessing the growth of the fungi related to the check growth. The results are expressed as % activity relative to the check (values of 0-100% growth). Afterwards the results were converted in % growth inhibition. EC95 values and also MIC (minimal inhibition concentration) values were derived for each compound.
(§5) For each solo compound a graph was drawn of percentage inhibition against the concentration of the fungicide. […] Also the concentration that gave the minimum inhibition concentration was derived as the MIC value.

Aspergillus niger [2] = test: as above; settings: for EC95: 24° C., 3-6 days; for MIC: Aspergillus niger, read-out: MIC Minimal inhibition concentration
Description: as §1, §2, §3, §4, §5

Aureobasidium pullulans [3] = test: as above; settings: for EC95: 24° C., 3-6 days; for MIC: Aureobasidium pullulans, read-out: MIC Minimal inhibition concentration
Description: as §1, §2, §3, §4, §5

Penicillium citrinum = test: as above; settings: for EC95: 24° C., 3-6 days; for MIC: Penicillium citrinum, read-out: MIC Minimal inhibition concentration
Description: as §1, §2, §3, §4, §5

Stachybotrys chartarum [4] = test: as above; settings: for EC95: 24° C., 3-6 days; for MIC: Stachybotrys chartarum, read-out: MIC Minimal inhibition concentration
Description: as §1, §2, §3, §4, §5

Alternaria tenuissima [5] = test: Synergy testing of 2-way mixtures, 24 well plates; settings: A. tenuissima
Description: (§6) For synergism testing of the 2-way mixtures 100 ul of each fungicide were filled into the 24 well plates (8 different rates) and 800 ul of 0.3% PDA media containing the spore suspension was added (see above). Different ratios of the 2 fungicide rates were tested at the same time.
as §2
(§7) For the mixtures of different fungicides the synergism was calculated based on the Colby equation, which is described below: […]
(§8) A synergistic effect exists whenever the action of the active ingredient combination of the compound of formula I and one or more compounds of formula II is greater than the sum of the actions of the active ingredients applied individually.
(§9) The fungicidal action to be expected, We, for a given combination of two fungicides can be calculated as follows (see COLBY, S. R. “Calculating synergistic and antagonistic response of herbicide combinations”. Weeds 15, pages 20-22; 1967):
(§10) If the activity actually observed is greater than the expected value We, there is a synergistic effect.
(§11) All rates below are expressed as mg ai/l (i.e. ppm).

Aspergillus niger [6] = test: Synergy testing of 2-way mixtures, 24 well plates; settings: A. niger
Description: as §6, §2, §7, §8, §9, §10, §11

Aureobasidium pullulans [7] = test: Synergy testing of 2-way mixtures, 24 well plates; settings: A. pullulans
Description: as §6, §2, §7, §8, §9, §10, §11

Alternaria alternata = test: Agar growth medium petri dish test, visual assessment of fungus-free surface
Description: (§12) A fungal growth medium was made comprising yeast extract (4 g) agar (8 g), magnesium sulphate (0.2 g), sodium nitrate (2.4 g), potassium chloride (0.2 g), potassium dihydrogen orthophosphate (0.6 g), glycerol (8 ml), distilled water (390 ml). Fungicides as set out in Tables 1 to 4 were added at levels of 5000, 100, 10, 1, 0.1 and 0.01 mg fungicide/litre of growth medium to give […] different growth medium compositions for each fungicide. These growth media containing the fungicide were each put into petri dishes.
(§13) Aspergillus versicolor, Ulocladium chartarum, Mucor indicus and Alternaria alternata were separately propagated on Luria agar to suppress sporulation and mycelial plugs were transferred upside down onto the petri dishes containing the growth medium.
(§14) A visual assessment was made of the surface of the petri dishes. The result recorded was the percentage of the surface that remained free of fungus. This was recorded as percentage activity
(§15) For each fungicide, a graph was drawn of percentage activity against concentration of to fungicide in the growth medium. From this graph, the concentrations of fungicide required to achieve 50%, 80% and 95% activity was estimated. These figures are given in the results tables.

Aspergillus versicolor = test: as above; settings: after 19 days at 25° C.
Description: as §12, §13, §14, §15

Mucor indicus = test: as above; settings: after 3 days at 25° C., 'no effect' = less than 50% activity at highest dose rate of 100 mg/l
Description: as §12, §13, §14, §15

Ulocladium chartarum = test: as above; settings: after 13 days at 20° C., 'no effect' = less than 50% activity at highest dose rate of 100 mg/l
Description: as §12, §13, §14, §15

Stachybotrys chartarum [8] = test: Synergy testing of 2-way mixtures, 24 well plates; settings: S. chartarum
Description: as §6, §2, §7, §8, §9, §10, §11

[9] = A. tenuissima, rates 0-100 mg ai/l, mean values of n = 5
[10] = A. niger, rates 0-100 mg ai/l, mean values of n = 5
[11] = A. pullulans, rates 0-100 mg ai/l, mean values of n = 5
[12] = P. citrinum, rates 0-100 mg ai/l, mean values of n = 5
[13] = S. chartarum, rates 0-100 mg ai/l, mean values of n = 5
[14] = CCZ + FDL table, rate (PPZ) 3.1 mg ai/l
[15] = CCZ + FDL table, rate (PPZ) 1.6 mg ai/l

Structure (SMILES): CC(C1CC1)C(O)(Cn1cncn1)c1ccc(Cl)cc1 (stereo not shown) [Cyproconazole]
- EC95 (Alternaria tenuissima [1]; A. tenuissima): 10.2 mg ai/l
- MIC (Alternaria tenuissima [1]; [9]): 12.5 µg/mL (≈ 42.8 µM)
- EC95 (Aspergillus niger [2]; A. niger): 10.1 mg ai/l
- MIC (Aspergillus niger [2]; [10]): 12.5 µg/mL (≈ 42.8 µM)
- EC95 (Aureobasidium pullulans [3]; A. pullulans): 6.5 mg ai/l
- MIC (Aureobasidium pullulans [3]; [11]): 12.5 µg/mL (≈ 42.8 µM)
- EC95 (Penicillium citrinum; P. citrinum): 50 mg ai/l
- MIC (Penicillium citrinum; [12]): 50 µg/mL (≈ 171 µM)
- EC95 (Stachybotrys chartarum [4]; S. chartarum): >100 mg ai/l
- MIC (Stachybotrys chartarum [4]; [13]): > 100 µg/mL
- inh % (PPZ alone) (Alternaria tenuissima [5]; CCZ + FDL table, rate (PPZ) 0.8 mg ai/l): 10%
- inh % (PPZ alone) (Alternaria tenuissima [5]; [14]): 30%
- inh % (PPZ alone) (Aspergillus niger [6]; [15]): 0%
- inh % (PPZ alone) (Aspergillus niger [6]; [14]): 0%
- inh % (PPZ alone) (Aureobasidium pullulans [7]; [15]): 70%

Structure (SMILES): c1ccc2[nH]c(-c3cscn3)nc2c1 [Thiabendazole]
- Concentration required for 95% Activity (Alternaria alternata): >5000 mg/L
- Concentration required for 80% Activity (Aspergillus versicolor): 6.9 mg/L
- Concentration required for 80% Activity (Mucor indicus): No effect
- Concentration required for 80% Activity (Ulocladium chartarum): No effect

Structure (SMILES): CCCC1COC(Cn2cncn2)(c2ccc(Cl)cc2Cl)O1 (stereo not shown) [Propiconazole]
- Concentration required for 95% Activity (Alternaria alternata): 16 mg/L
- Concentration required for 80% Activity (Aspergillus versicolor): 9.2 mg/L
- Concentration required for 80% Activity (Mucor indicus): 61 mg/L
- Concentration required for 80% Activity (Ulocladium chartarum): 4.2 mg/L
- EC95 (Alternaria tenuissima [1]; A. tenuissima): 10.1 mg ai/l
- MIC (Alternaria tenuissima [1]; [9]): 12.5 µg/mL (≈ 36.5 µM)
- EC95 (Aspergillus niger [2]; A. niger): 3 mg ai/l
- MIC (Aspergillus niger [2]; [10]): 3.1 µg/mL (≈ 9.06 µM)
- EC95 (Aureobasidium pullulans [3]; A. pullulans): 36 mg ai/l
- MIC (Aureobasidium pullulans [3]; [11]): 50 µg/mL (≈ 146 µM)
- EC95 (Penicillium citrinum; P. citrinum): 1.5 mg ai/l
- MIC (Penicillium citrinum; [12]): 1.6 µg/mL (≈ 4.68 µM)
- EC95 (Stachybotrys chartarum [4]; S. chartarum): >100 mg ai/l
- MIC (Stachybotrys chartarum [4]; [13]): > 100 µg/mL
- inh % (PPZ alone) (Alternaria tenuissima [5]; PPZ 0.8 mg ai/l): 0%
- inh % (PPZ alone) (Alternaria tenuissima [5]; PPZ 1.6 mg ai/l): 10%
- inh % (PPZ alone) (Alternaria tenuissima [5]; PPZ 3.1 mg ai/l): 30%
- inh % (PPZ alone) (Aspergillus niger [6]; PPZ 0.05 mg ai/l): 0%
- inh % (PPZ alone) (Aspergillus niger [6]; PPZ 0.2 mg ai/l): 0%
- inh % (PPZ alone) (Aspergillus niger [6]; PPZ 0.8 mg ai/l): 0%
- inh % (PPZ alone) (Aspergillus niger [6]; PPZ 1.6 mg ai/l): 30%
- inh % (PPZ alone) (Aureobasidium pullulans [7]; PPZ 3.1 mg ai/l): 70%
- inh % (PPZ alone) (Aureobasidium pullulans [7]; PPZ 12.5 mg ai/l): 70%

Structure (SMILES): CC1COC(Cn2cncn2)(c2ccc(Oc3ccc(Cl)cc3)cc2Cl)O1 (stereo not shown) [Difenoconazole]
- EC95 (Alternaria tenuissima [1]; A. tenuissima): 0.7 mg ai/l
- MIC (Alternaria tenuissima [1]; [9]): 0.8 µg/mL (≈ 1.97 µM)
- EC95 (Aspergillus niger [2]; A. niger): 1.4 mg ai/l
- MIC (Aspergillus niger [2]; [10]): 1.6 µg/mL (≈ 3.94 µM)
- EC95 (Aureobasidium pullulans [3]; A. pullulans): 8 mg ai/l
- MIC (Aureobasidium pullulans [3]; [11]): 12.5 µg/mL (≈ 30.8 µM)
- EC95 (Penicillium citrinum; P. citrinum): 1.7 mg ai/l
- MIC (Penicillium citrinum; [12]): 1.6 µg/mL (≈ 3.94 µM)
- EC95 (Stachybotrys chartarum [4]; S. chartarum): 2.7 mg ai/l
- MIC (Stachybotrys chartarum [4]; [13]): 3.1 µg/mL (≈ 7.63 µM)
- inh % (DFZ alone) (Aspergillus niger [6]; DFZ 0.05 mg ai/l): 0%
- inh % (DFZ alone) (Aspergillus niger [6]; DFZ 0.2 mg ai/l): 0%
- inh % (DFZ alone) (Aspergillus niger [6]; DFZ 0.8 mg ai/l): 10%
- inh % (DFZ alone) (Aureobasidium pullulans [7]; DFZ 0.2 mg ai/l): 70%
- inh % (DFZ alone) (Aureobasidium pullulans [7]; DFZ 0.8 mg ai/l): 90%
- inh % (DFZ alone) (Aureobasidium pullulans [7]; DFZ 1.6 mg ai/l): 90%
- inh % (DFZ alone) (Aureobasidium pullulans [7]; DFZ 3.1 mg ai/l): 70%
- inh % (DFZ alone) (Stachybotrys chartarum [8]; DFZ 0.8 mg ai/l): 50%
- inh % (DFZ alone) (Stachybotrys chartarum [8]; DFZ 1.6 mg ai/l): 90%

Structure (SMILES): N#Cc1c[nH]cc1-c1cccc2c1OC(F)(F)O2 [Fludioxonil]
- Concentration required for 95% Activity (Alternaria alternata): 0.95 mg/L
- Concentration required for 80% Activity (Aspergillus versicolor): 0.81 mg/L
- Concentration required for 80% Activity (Mucor indicus): 2.8 mg/L
- Concentration required for 80% Activity (Ulocladium chartarum): 0.28 mg/L
- EC95 (Alternaria tenuissima [1]; A. tenuissima): 1.3 mg ai/l
- MIC (Alternaria tenuissima [1]): 1.6 µg/mL (≈ 6.45 µM)
- EC95 (Aspergillus niger [2]; A. niger): >100 mg ai/l
- MIC (Aspergillus niger [2]): > 100 µg/mL
- EC95 (Aureobasidium pullulans [3]; A. pullulans): >100 mg ai/l
- MIC (Aureobasidium pullulans [3]): > 100 µg/mL
- EC95 (Penicillium citrinum; P. citrinum): 0.18 mg ai/l
- MIC (Penicillium citrinum): 0.2 µg/mL (≈ 0.806 µM)
- EC95 (Stachybotrys chartarum [4]; S. chartarum): 0.18 mg ai/l
- MIC (Stachybotrys chartarum [4]): 0.2 µg/mL (≈ 0.806 µM)
- inh % (FDL alone) (Alternaria tenuissima [5]; FDL 0.2 mg ai/l, listed as FDL): 90% and 70%
- inh % (FDL alone) (Alternaria tenuissima [5]; FDL 0.8 mg ai/l): 90%
- inh % (FDL alone) (Aspergillus niger [6]; FDL 0.2 mg ai/l): 30%
- inh % (FDL alone) (Aspergillus niger [6]; FDL 0.8 mg ai/l): 30%
- inh % (FDL alone) (Aspergillus niger [6]; FDL 1.6 mg ai/l): 30%
- inh % (FDL alone) (Aspergillus niger [6]; FDL 3.1 mg ai/l): 30%
- inh % (FDL alone) (Aspergillus niger [6]; FDL 12.5 mg ai/l): 30%
- inh % (FDL alone) (Aspergillus niger [6]; FDL 50 mg ai/l): 30%
- inh % (FDL alone) (Aspergillus niger [6]; FDL 100 mg ai/l): 30%
- inh % (FDL alone) (Aureobasidium pullulans [7]; FDL 0.8 mg ai/l): 10%
- inh % (FDL alone) (Aureobasidium pullulans [7]; FDL 1.6 mg ai/l, listed as FDL): 0% and 10%
- inh % (FDL alone) (Aureobasidium pullulans [7]; FDL 3.1 mg ai/l, listed as FDL): 0% and 10%
- inh % (FDL alone) (Aureobasidium pullulans [7]; FDL 12.5 mg ai/l, listed as FDL): 0% and 10%
- inh % (FDL alone) (Aureobasidium pullulans [7]; FDL 50 mg ai/l, listed as FDL): 0% and 10%
- inh % (FDL alone) (Aureobasidium pullulans [7]; FDL 100 mg ai/l, listed as FDL): 0% and 10%
- inh % (FDL alone) (Stachybotrys chartarum [8]; FDL 0.05 mg ai/l): 10%

— patent publication US20090297571A1, “ANTIFUNGAL WALLBOARDS AND BUILDING MATERIALS AND METHODS FOR THE PRODUCTION THEREOF” (SYNGENTA CROP PROTECTION, INC., priority 2004, published 2009)
